Results reported in US20240325369A1 (priority 2021, published 2024).

Experimental: Efficacy objectives were evaluated for subjects meeting the biomarker selection criteria described in the protocol. All subjects were monitored for safety during the study period, and up to 30 days after the last dose of study drug. Treatment continued until disease progression, unacceptable toxicity, death, or termination of the study by the sponsor.
Serum PSA, CTCs, survival status, SSEs were also collected. PROs included the BPI-SF, FACT-P, and EQ-5D-5L questionnaires. Safety assessments included recording of AEs, physical examinations, vital signs, ECGs, and ECOG performance status. Clinical laboratory testing included hematology, blood chemistry, and liver function parameters. Blood samples were also taken for pharmacokinetic assessments and biomarker analysis. Archival or recently collected tumor tissue samples were obtained from consenting subjects for biomarker identification.
All AEs reported on or after the date of first dose until 30 days (inclusive) after the last dose of study drug were considered treatment-emergent and were summarized. […] In addition. AE incidence rates were also summarized by severity and relationship to study drug. Treatment-related AEs were those judged by the investigator to beat least possibly related to the study drug. […] Deaths that occurred within 30 days after the last dose of study drug were defined as on-study deaths. No inferential statistical analyses were performed in analyzing the safety data.

[1] = safety population (289 subjects)
[2] = safety population (289 subjects), 300 mg once daily
[3] = safety population (289 subjects), data cutoff 26 Jan. 2021
[4] = safety population, 300 mg once daily

NC(=O)c1cccc2cn(-c3ccc([C@@H]4CCCNC4)cc3)nc12 [Niraparib, 2-[4-[(3S)-piperidin-3-yl]phenyl]-2H-indazole-7-carboxamide]
Treatment discontinuation because of adverse events (reason for discontinuation) (289 enrolled subjects, clinical data cutoff 26 Jan. 2021): 14% | Safety profile (heavily pre-treated prostate cancer population): manageable | Deaths due to treatment-emergent AEs, % of subjects [1]: 5.5% | Deaths due to treatment-emergent AEs, number of subjects [1]: 16 | Deaths within 30 days of the last dose due to progressive disease, % of subjects [1]: 6% | Deaths within 30 days of the last dose due to progressive disease, number of subjects [1]: 17 | AEs leading to treatment discontinuation, % of subjects [2]: 22.8% | Adverse event of clinical interest (all grades): anemia [2]: 54.0% | Adverse event of clinical interest (all grades): febrile neutropenia [2]: 1.0% | Adverse event of clinical interest (all grades): neutropenia [2]: 19.4% | Adverse event of clinical interest (all grades): thrombocytopenia [2]: 34.3% | Grade 3 or 4 AE: anemia [2]: 32.9% | Grade 3 or 4 AE: fatigue [2]: 6.6% | Grade 3 or 4 AE: nausea [2]: 5.2% | Grade 3 or 4 AE: neutropenia [2]: 9.7% | Grade 3 or 4 AE: thrombocytopenia [2]: 16.3% | Grade 3 or 4 AEs, % of subjects [2]: 75.1% | Grade 4 AE: thrombocytopenia, % of subjects [2]: 8.0% | Grade 4 AE: thrombocytopenia, number of subjects [2]: 23 | Subjects reporting SAEs [2]: 46.4% | Subjects who experienced at least 1 AE [2]: 99.7% | Subjects who reported a related AE [2]: 90% | Deaths within 30 days of the last dose of study drug, % of subjects [3]: 9% | Deaths within 30 days of the last dose of study drug, number of subjects [3]: 26 | Grade 3 or 4 clinical chemistry value: hyperkalemia [4]: 2.5% | Grade 3 or 4 clinical chemistry value: hyponatremia [4]: 3.2% | Grade 3 or 4 clinical chemistry value: increased GGT [4]: 5.0% | Grade 3 or 4 clinical chemistry value: increased alkaline phosphatase [4]: 2.5% | Grade 3 or 4 hematology value: anemia [4]: 17.0% | Grade 3 or 4 hematology value: decreased lymphocyte count [4]: 18.4%
